This is an account of results in patent US6770133B2, “Stable crystal of thiazolidinedione derivative and process for producing the same” (Kyorin Pharmaceutical Co., Ltd., priority 2000, dated 2004).

The structures appear in SMILES notation.

For series [1] the following is noted: M. Nomura et al, Bioorg. Med. Chem. Lett., 9 (1999) 533-538; cited from earlier work.
A short description of series [2]: Thermal analysis (thermal stability of the crystals). Format: physicochemical. The source says: Using the thermal analysis apparatus (Rigaku Denki; TAS-200), the thermal stability of the crystals were examined.
A short description of series [3]: Hygroscopicity of the crystals. The format is physicochemical.
The mark [4] stands for this setting: thermal analysis apparatus Rigaku Denki TAS-200.

Take `COc1ccc(CC2SC(=O)NC2=O)cc1C(=O)NCc1ccc(C(F)(F)F)cc1` (stereo not drawn) [KRP-297, 5-[(2,4-dioxothiazolidin-5-yl)methyl]-2-methoxy-N-[[4-(trifluoromethyl)phenyl]methyl]benzamide]: the glucose-lowering activity entry in series [1] was “very excellent glucose-lowering activity”.
As to `COc1ccc(CC2SC(=O)NC2=O)cc1C(=O)NCc1ccc(C(F)(F)F)cc1` (stereo not drawn) [conventional crystals, 5-[(2,4-dioxothiazolidin-5-yl)methyl]-2-methoxy-N-[[4-(trifluoromethyl)phenyl]methyl]benzamide, reference compound], the endothermic peak in series [2] (setting [4]) came out at 186.3 °C.
As to `COc1ccc(CC2SC(=O)NC2=O)cc1C(=O)NCc1ccc(C(F)(F)F)cc1` (stereo not drawn) [novel crystal, 5-[(2,4-dioxothiazolidin-5-yl)methyl]-2-methoxy-N-[[4-(trifluoromethyl)phenyl]methyl]benzamide], the hygroscopicity entry in series [3] is given as “no hygroscopicity”. Also, in series [2] (conclusion from thermal analysis), the “thermal stability compared with the conventional crystal” value is on record as “more thermally stable”. Further, in series [2] (setting [4]), the endothermic peak turned out to be 196.2 °C and the “endothermic phenomena observed from (onset)” value came to 194.8 °C.
